Source: patent publication US4746675A, “External pharmaceutical composition” (Teijin Limited, priority 1983, dated 1988)

Assays:
carrageenan edema = carrageenan edema inhibiting effect of betamethasone valerate ointments; assay type: in vivo, rat; details: Table 5, betamethasone valerate ointment with penetration enhancer
Method: An ointment was prepared from 0.15 part by weight of betamethasone valerate, 9.85 parts by weight of compound (168) and 90 parts by weight of the hydrophilic ointment.
In accordance with the method of R. Passarella et al. [Argneim. Forsch 30, (I), Nr. 4, 647-651 (1980)], the carrageenan edema inhibiting effect of the above ointment was examined. Specifically, 0.1 ml of a 1% carrageenan suspension in 0.9% NaCl solution was injected into the tip of the right leg of a rat (body weight 150-175 g). The foot volume was measured immediately after administration of carrageenan and 3, 5, and 6 hours after the administration by means of a mercury displacement device. 0.5, 1 and 2 hours after the administration of carrageenan, 100 mg of the ointment was well […] into each of the sites which underwent inflammation.
Various ointments were prepared from 0.15 part by weight of betamethasone valerate, […] of the various penetration enhancers shown in Table 5, and 85 parts by weight of the hydrophilic ointment, and tested in the same way as in Example 23.

[1] = system: eye (cornea, iris, conjunctiva); assay: primary eye irritation (Draize) in rabbits; assay type: in vivo, white native male rabbits; details: for Primary irritation score, Conjunctiva / Primary irritation score, Cornea / Primary irritation score, Iris / Primary irritation score, Total: average of three rabbits
Method: enhancers of this invention shown in Table 17 was applied dropwise to one eye of white native male rabbits (body weight 2.0 to 3.0 kg; 3 per group) which, it had been ascertained, were free from any trouble at the cornea, iris and conjunctiva. Nothing was applied to the other eye. Thus, irritation of the absorption aid to the mucous membrane of the eyes were examined, and scores were calculated in accordance with the Draize's eye irritation evaluating method [Association of Foods, "Drugs and Cosmetics" (1957)].
As a control, sodium laurylsulfate, a kind of surface-active agent, was evaluated in the same way, and the results are also shown in Table 17.

CCCCCCOCC(O)COC(=O)[C@@H]1CCC(=O)N1 (stereo partly shown) [Compound (104), 3-hexyloxy-2-hydroxy-1-pyroglutamyloxypropane]
Percentage inhibition vs. control (carrageenan edema; 3 hrs): 18.3% | Percentage inhibition vs. control (carrageenan edema; 5 hrs): 35.3% | Percentage inhibition vs. control (carrageenan edema; 6 hrs): 37.0%

CCCCCCCCCCCCOCC(O)COC(=O)[C@@H]1CCC(=O)N1 (stereo partly shown) [Compound (108), 3-dodecyloxy-2-hydroxy-1-pyroglutamyloxypropane]
Primary irritation score, Conjunctiva ([1]; 0.8% soln, 1 hour): 2.0 | Primary irritation score, Cornea ([1]; 0.8% soln, 1 hour): 0 | Primary irritation score, Iris ([1]; 0.8% soln, 1 hour): 0 | Primary irritation score, Total ([1]; 0.8% soln, 1 hour): 2.0 | Primary irritation score, Conjunctiva ([1]; 0.8% soln, 3 hours): 2.0 | Primary irritation score, Cornea ([1]; 0.8% soln, 3 hours): 0 | Primary irritation score, Iris ([1]; 0.8% soln, 3 hours): 0 | Primary irritation score, Total ([1]; 0.8% soln, 3 hours): 2.0 | Primary irritation score, Conjunctiva ([1]; 0.8% soln, 6 hours): 1.3 | Primary irritation score, Cornea ([1]; 0.8% soln, 6 hours): 0 | Primary irritation score, Iris ([1]; 0.8% soln, 6 hours): 0 | Primary irritation score, Total ([1]; 0.8% soln, 6 hours): 1.3 | Primary irritation score, Conjunctiva ([1]; 0.8% soln, 24 hours): 0 | Primary irritation score, Cornea ([1]; 0.8% soln, 24 hours): 0 | Primary irritation score, Iris ([1]; 0.8% soln, 24 hours): 0 | Primary irritation score, Total ([1]; 0.8% soln, 24 hours): 0 | Primary irritation score, Conjunctiva ([1]; 0.8% soln, 48 hours): 0 | Primary irritation score, Cornea ([1]; 0.8% soln, 48 hours): 0 | Primary irritation score, Iris ([1]; 0.8% soln, 48 hours): 0 | Primary irritation score, Total ([1]; 0.8% soln, 48 hours): 0 | Primary irritation score, Conjunctiva ([1]; 0.8% soln, 72 hours): 0 | Primary irritation score, Cornea ([1]; 0.8% soln, 72 hours): 0 | Primary irritation score, Iris ([1]; 0.8% soln, 72 hours): 0 | Primary irritation score, Total ([1]; 0.8% soln, 72 hours): 0 | Primary irritation score, Conjunctiva ([1]; 0.8% soln, 96 hours): 0 | Primary irritation score, Cornea ([1]; 0.8% soln, 96 hours): 0 | Primary irritation score, Iris ([1]; 0.8% soln, 96 hours): 0 | Primary irritation score, Total ([1]; 0.8% soln, 96 hours): 0 | Primary irritation score, Conjunctiva ([1]; 0.8% soln, 168 hours): 0 | Primary irritation score, Cornea ([1]; 0.8% soln, 168 hours): 0 | Primary irritation score, Iris ([1]; 0.8% soln, 168 hours): 0 | Primary irritation score, Total ([1]; 0.8% soln, 168 hours): 0 | Percentage inhibition vs. control (carrageenan edema; 3 hrs): 20.1% | Percentage inhibition vs. control (carrageenan edema; 5 hrs): 36.7% | Percentage inhibition vs. control (carrageenan edema; 6 hrs): 36.7%

CCCCCCCCCCCCCCCCCCOCC(O)COC(=O)[C@@H]1CCC(=O)N1 (stereo partly shown) [Compound (112), 2-hydroxy-3-octadecyloxy-1-pyroglutamyloxypropane]
Percentage inhibition vs. control (carrageenan edema; 3 hrs): 17.8% | Percentage inhibition vs. control (carrageenan edema; 5 hrs): 32.2% | Percentage inhibition vs. control (carrageenan edema; 6 hrs): 33.0%

CCCCCCCCOCC(COC(=O)[C@@H]1CCC(=O)N1)OCCCCCCCC (stereo partly shown) [Compound (122), 2,3-dioctyloxy-1-pyroglutamyloxypropane]
Percentage inhibition vs. control (carrageenan edema; 3 hrs): 20.2% | Percentage inhibition vs. control (carrageenan edema; 5 hrs): 36.5% | Percentage inhibition vs. control (carrageenan edema; 6 hrs): 38.3%

CCCCCCCCCCCCCCCCCCOCC(COC(=O)[C@@H]1CCC(=O)N1)OCCCCCCCCCCCCCCCCCC (stereo partly shown) [Compound (124), 2,3-dioctadecyloxy-1-pyroglutamyloxypropane]
Percentage inhibition vs. control (carrageenan edema; 3 hrs): 19.5% | Percentage inhibition vs. control (carrageenan edema; 5 hrs): 37.8% | Percentage inhibition vs. control (carrageenan edema; 6 hrs): 36.6%

CCCCCCCC=CCCCCCCCCOCC(COC(=O)[C@@H]1CCC(=O)N1)OCCCCCCCCC=CCCCCCCC (stereo partly shown) [Compound (142), 2,3-di(9-heptadecenyloxy)-1-pyroglutamyloxypropane]
Percentage inhibition vs. control (carrageenan edema; 3 hrs): 16.5% | Percentage inhibition vs. control (carrageenan edema; 5 hrs): 34.6% | Percentage inhibition vs. control (carrageenan edema; 6 hrs): 34.0%

CCCCC(=O)OCC(O)COC(=O)[C@@H]1CCC(=O)N1 (stereo partly shown) [Compound (156), 2-hydroxy-3-valeryloxy-1-pyroglutamyloxypropane]
Percentage inhibition vs. control (carrageenan edema; 3 hrs): 18.6% | Percentage inhibition vs. control (carrageenan edema; 5 hrs): 35.1% | Percentage inhibition vs. control (carrageenan edema; 6 hrs): 34.3%

CCCCC(=O)OCC(COC(=O)[C@@H]1CCC(=O)N1)OC(=O)CCCC (stereo partly shown) [Compound (158), 2,3-divaleryloxy-1-pyroglutamyloxypropane]
Percentage inhibition vs. control (carrageenan edema; 3 hrs): 18.0% | Percentage inhibition vs. control (carrageenan edema; 5 hrs): 36.0% | Percentage inhibition vs. control (carrageenan edema; 6 hrs): 36.1%

CCCCCCCC(=O)OCC(O)COC(=O)[C@@H]1CCC(=O)N1 (stereo partly shown) [Compound (160), 2-hydroxy-3-octanoyloxy-1-pyroglutamyloxypropane]
Percentage inhibition vs. control (carrageenan edema; 3 hrs): 17.7% | Percentage inhibition vs. control (carrageenan edema; 5 hrs): 30.8% | Percentage inhibition vs. control (carrageenan edema; 6 hrs): 29.9%

CCCCCCCC/C=C\CCCCCCCC(=O)OCC(COC(=O)C1CCC(=O)N1)OC(=O)CCCCCCC/C=C\CCCCCCCC (stereo not shown) [Compound (170), 2,3,-dioleoyloxy-1-pyroglutamyloxypropane]
Percentage inhibition vs. control (carrageenan edema; 3 hrs): 17.9% | Percentage inhibition vs. control (carrageenan edema; 5 hrs): 33.4% | Percentage inhibition vs. control (carrageenan edema; 6 hrs): 36.2%

CCC=CC(=O)OCC(O)COC(=O)[C@@H]1CCC(=O)N1 (stereo partly shown) [Compound (184), 2-hydroxy-3(2-pentenoyloxy)-1-pyroglutamyloxypropane]
Percentage inhibition vs. control (carrageenan edema; 3 hrs): 19.0% | Percentage inhibition vs. control (carrageenan edema; 5 hrs): 35.3% | Percentage inhibition vs. control (carrageenan edema; 6 hrs): 35.5%

CCCCCCCCCCC=CCCCCCCCCCC(=O)OCC(O)COC(=O)[C@@H]1CCC(=O)N1 (stereo partly shown) [Compound (192), 3-(11-docosenoyloxy)-2-hydroxy-1-pyroglutamyloxypropane]
Percentage inhibition vs. control (carrageenan edema; 3 hrs): 19.5% | Percentage inhibition vs. control (carrageenan edema; 5 hrs): 36.7% | Percentage inhibition vs. control (carrageenan edema; 6 hrs): 30.8%

CC1(C)OCC(COC(=O)C2CCC(=O)N2)O1 (stereo not shown) [Compound (202), 2,3-dioxo-(dimethyl)methylene-1-pyroglutamyloxypropane]
Percentage inhibition vs. control (carrageenan edema; 3 hrs): 17.7% | Percentage inhibition vs. control (carrageenan edema; 5 hrs): 39.6% | Percentage inhibition vs. control (carrageenan edema; 6 hrs): 36.1%

CCCCCCCCCCCCCCCC1OCC(COC(=O)C2CCC(=O)N2)O1 (stereo not shown) [Compound (220), 2,3-dioxo-(pentadecyl)methylene-1-pyroglutamyloxypropane]
Percentage inhibition vs. control (carrageenan edema; 3 hrs): 16.6% | Percentage inhibition vs. control (carrageenan edema; 5 hrs): 29.7% | Percentage inhibition vs. control (carrageenan edema; 6 hrs): 29.8%

CCCCCCCCCCCCOS(=O)(=O)[O-].[Na+] [Sodium Laurylsulfate, sodium laurylsulfate, reference compound]
Primary irritation score, Conjunctiva ([1]; 0.1% soln, 1 hour): 4.0 | Primary irritation score, Cornea ([1]; 0.1% soln, 1 hour): 0 | Primary irritation score, Iris ([1]; 0.1% soln, 1 hour): 0 | Primary irritation score, Total ([1]; 0.1% soln, 1 hour): 4.0 | Primary irritation score, Conjunctiva ([1]; 0.1% soln, 3 hours): 4.0 | Primary irritation score, Cornea ([1]; 0.1% soln, 3 hours): 0 | Primary irritation score, Iris ([1]; 0.1% soln, 3 hours): 0 | Primary irritation score, Total ([1]; 0.1% soln, 3 hours): 4.0 | Primary irritation score, Conjunctiva ([1]; 0.1% soln, 6 hours): 0 | Primary irritation score, Cornea ([1]; 0.1% soln, 6 hours): 0 | Primary irritation score, Iris ([1]; 0.1% soln, 6 hours): 0 | Primary irritation score, Total ([1]; 0.1% soln, 6 hours): 0 | Primary irritation score, Conjunctiva ([1]; 0.1% soln, 24 hours): 0 | Primary irritation score, Cornea ([1]; 0.1% soln, 24 hours): 0 | Primary irritation score, Iris ([1]; 0.1% soln, 24 hours): 0 | Primary irritation score, Total ([1]; 0.1% soln, 24 hours): 0 | Primary irritation score, Conjunctiva ([1]; 0.1% soln, 48 hours): 0 | Primary irritation score, Cornea ([1]; 0.1% soln, 48 hours): 0 | Primary irritation score, Iris ([1]; 0.1% soln, 48 hours): 0 | Primary irritation score, Total ([1]; 0.1% soln, 48 hours): 0 | Primary irritation score, Conjunctiva ([1]; 0.1% soln, 72 hours): 0 | Primary irritation score, Cornea ([1]; 0.1% soln, 72 hours): 0 | Primary irritation score, Iris ([1]; 0.1% soln, 72 hours): 0 | Primary irritation score, Total ([1]; 0.1% soln, 72 hours): 0 | Primary irritation score, Conjunctiva ([1]; 0.1% soln, 96 hours): 0 | Primary irritation score, Cornea ([1]; 0.1% soln, 96 hours): 0 | Primary irritation score, Iris ([1]; 0.1% soln, 96 hours): 0 | Primary irritation score, Total ([1]; 0.1% soln, 96 hours): 0 | Primary irritation score, Conjunctiva ([1]; 0.1% soln, 168 hours): 0 | Primary irritation score, Cornea ([1]; 0.1% soln, 168 hours): 0 | Primary irritation score, Iris ([1]; 0.1% soln, 168 hours): 0 | Primary irritation score, Total ([1]; 0.1% soln, 168 hours): 0 | Primary irritation score, Conjunctiva ([1]; 2.4% soln, 1 hour): 13.3 | Primary irritation score, Cornea ([1]; 2.4% soln, 1 hour): 0 | Primary irritation score, Iris ([1]; 2.4% soln, 1 hour): 5.0 | Primary irritation score, Total ([1]; 2.4% soln, 1 hour): 18.3 | Primary irritation score, Conjunctiva ([1]; 2.4% soln, 3 hours): 12.7 | Primary irritation score, Cornea ([1]; 2.4% soln, 3 hours): 0 | Primary irritation score, Iris ([1]; 2.4% soln, 3 hours): 0 | Primary irritation score, Total ([1]; 2.4% soln, 3 hours): 12.7 | Primary irritation score, Conjunctiva ([1]; 2.4% soln, 6 hours): 11.3 | Primary irritation score, Cornea ([1]; 2.4% soln, 6 hours): 0 | Primary irritation score, Iris ([1]; 2.4% soln, 6 hours): 0 | Primary irritation score, Total ([1]; 2.4% soln, 6 hours): 11.3 | Primary irritation score, Conjunctiva ([1]; 2.4% soln, 24 hours): 8.0 | Primary irritation score, Cornea ([1]; 2.4% soln, 24 hours): 0 | Primary irritation score, Iris ([1]; 2.4% soln, 24 hours): 0 | Primary irritation score, Total ([1]; 2.4% soln, 24 hours): 8.0 | Primary irritation score, Conjunctiva ([1]; 2.4% soln, 48 hours): 4.0 | Primary irritation score, Cornea ([1]; 2.4% soln, 48 hours): 0 | Primary irritation score, Iris ([1]; 2.4% soln, 48 hours): 0 | Primary irritation score, Total ([1]; 2.4% soln, 48 hours): 4.0 | Primary irritation score, Conjunctiva ([1]; 2.4% soln, 72 hours): 2.7 | Primary irritation score, Cornea ([1]; 2.4% soln, 72 hours): 0 | Primary irritation score, Iris ([1]; 2.4% soln, 72 hours): 0 | Primary irritation score, Total ([1]; 2.4% soln, 72 hours): 2.7 | Primary irritation score, Conjunctiva ([1]; 2.4% soln, 96 hours): 2.0 | Primary irritation score, Cornea ([1]; 2.4% soln, 96 hours): 0 | Primary irritation score, Iris ([1]; 2.4% soln, 96 hours): 0 | Primary irritation score, Total ([1]; 2.4% soln, 96 hours): 2.0 | Primary irritation score, Conjunctiva ([1]; 2.4% soln, 168 hours): 0.7 | Primary irritation score, Cornea ([1]; 2.4% soln, 168 hours): 0 | Primary irritation score, Iris ([1]; 2.4% soln, 168 hours): 0 | Primary irritation score, Total ([1]; 2.4% soln, 168 hours): 0.7 | eye irritation (in words) ([1]; rabbit, in vivo): fairly strong irritation
